Experimental findings from patent publication US20230107216A1, “PANTETHEINE DERIVATIVES AND USES THEREOF” (Comet Therapeutics, Inc., priority 2018, published 2023) are described below.

Assay [1] relates to tyrosine hydroxylase positive mesencephalic neurons injured by 6-OHDA. Put plainly: Neuroprotective effect on damage induced by 6-OHDA on culture of mesencephalic neurons. It counts as cell-based. Particulars: Rattus norvegicus, Neuron; 50 uM; 6-OHDA 15 μM, 48h; read-out: % reversion of TH positive neurons (6-OHDA-mediated degradation of dopaminergic neurons). The protocol: The protective effect of compounds of the present disclosure was determined on 6-OHDA-mediated injury on mesencephalon neuronal cultures.
(§1) A female Wistar rat (Janvier; France) of 15 days gestation was terminated by cervical dislocation, the fetuses were removed from the uterus and their brains were harvested and placed in ice-cold medium (Leibovitz's L15 medium, Gibco). Only ventral mesencephalic flexure was used for the cell preparations. The midbrain was dissociated by trypsinization. The reaction was stopped, and the suspension was triturated and centrifuged. The pellet of dissociated cells was resuspended in chemically defined medium consisted of Neurobasal (Gibco, 21103049), containing B27 supplement (Gibco, A3582801) and L-glutamine (Gibco, 25030081), 10 ng/ml (BDNF; Pepro Tech, France, 450-02) and 1 ng/ml (GDNF; Pepro Tech, 450-51).
(§2) Viable primary rat embryo mesencephalic cells were counted and seeded on 96-multi-wells plate precoated with poly-L-lysine. Cells were maintained in a humidified incubator at 37° C. in 5% CO2-95% air atmosphere and medium changed on day 2. On day 6, the culture medium was removed and replaced by new media without neurotrophic factors containing the compounds of the present disclosure (50-10 μM) or vehicle (0.1% DMSO). After 1h exposure, injury of mesencephalon neuronal cultures was induced by 6-OHDA (15 μM) for further 48h. A mixture of the growth factors GDNF (1 ng/ml) and BDNF (10 ng/ml) were used as reference compound. On day 8, the tyrosine hydroxylase positive neurons were evaluated. Cultures were fixed 30 min at 4° C. with paraformaldehyde in PBS (4%, Sigma). After, cells were permeabilized with 0.1% Triton X100 for 30 min, saturated with PBS containing 3% of BSA (bovine serum albumin) and incubated 2h with anti-tyrosine hydroxylase antibody (Sigma, 1:10000; clone TH-2) at 1/10000 in PBS containing 0.5% of BSA. Cells were washed three times with PBS containing 0.5% of BSA and incubated 1h with goat anti mouse antibody coupled with AF488 (Invitrogen A11001) diluted at 1/1000 in PBS containing 0.5% of BSA. Finally, nuclei were stained with DAPI (Thermo fisher, D1306) at 1/1000 in PBS containing 0.5% of BSA. After rinsing with PBS, the plate was visualized and examined with Cell Insight HCS (Thermo Scientific) to determine the number of tyrosine hydroxylase positive cells per well.
(§3) The results for each well were expressed as a percentage by setting the density of tyrosine hydroxylase positive cells under control conditions to 100%. Then the result for each condition was reported as mean±SEM from 4 independent cultures.
(§4) A global analysis of the data was performed using a one-way analysis of variance (ANOVA), followed by Fisher's Protected Least Significant Difference when applicable. The level of significance was set to p<0.05.

Assay [2] deals with tyrosine hydroxylase positive mesencephalic neurons injured by MPP+. Put plainly: Neuroprotective effect on damage induced by MPP+ on culture of mesencephalic neurons. It counts as cell-based. Particulars: Rattus norvegicus, Neuron, MPP+ 50 μM, 48h, read-out: % reversion of TH positive neurons (MPTP-mediated degradation of dopaminergic neurons).
Description: as §1, with “(Gibco),” for “(Gibco, 21103049),”, “(Gibco)” for “(Gibco, A3582801)”, “(Gibco),” for “(Gibco, 25030081),”, “France)” for “France, 450-02)”, “Tech).” for “Tech, 450-51).”
as §2, with “MPP^+ (50” for “6-OHDA (15”, “Thermo Scientific, 28908).” for “Sigma).”, “DAPI” for “DAPI (Thermo fisher, D1306)”
as §3, §4

Assay [3] deals with Bronchial epithelial cells co-cultured with dermal fibroblast (BF4T system). Put plainly: BioMAP BF4T system (TNFα and IL-4). It counts as cell-based, human.
Setting [4] is: 10 uM, procedure of Example 830.

A value given as a limit tells only on which side of the number the result lay.

`CC(=O)SCCNC(=O)CCNC(=O)[C@H](O)C(C)(C)COC(=O)[C@@H](N)Cc1ccc(O)c(O)c1` [Compound 498, (3R)-3-[(2-[[2-(acetylsulfanyl)ethyl]carbamoyl]ethyl)carbamoyl]-3-hydroxy-2,2-dimethylpropyl (2S)-2-amino-3-(3,4-dihydroxyphenyl)propanoate]: the inhibition at 50 µM in assay [1] is at least 30%. Further, in assay [2], the inhibition at 10 µM is at least 60%. For the same molecule, in assay [3] (1 uM, procedure of Example 830), the “% increase in 1L-8” value is at least 10% and the “% increase in MCP-1” value is given as at least 10%. The “% decrease in IL-1α” value in assay [3] (10 uM) is on record as at least 10%. In addition, in assay [3] (setting [4]), the “% increase in Eotaxin-3” value is at least 10% and the “% increase in MMP-9” value is at least 10%. The activation at 10 µM in assay [3] (Homo sapiens, 24 h, 10 uM, procedure of Example 830, read-out: % increase in VCAM-1) is at least 10%.
